Measurements reported in patent US20130029858A1, “Method of Drug Screening through Quantitative Detection by Atomic Force Microscopy and Effective Protein Chips Development through Method Thereof” (NATIONAL APPLIED RESEARCH LABORATORIES, priority 2011, published 2013).

Biological target: CD28/CD80 binding (Homo sapiens, UniProt P10747)
Assay: AFM measurement of binding force between imm-CD28 on chips and afm-CD80 on probe, blocking by drug
Source text: (a) Immobilizing receptor and ligand [11]: At least one receptor is immobilized on a surface of each one of a plurality of chips and at least one ligand to the receptor is immobilized on a surface of a probe of an AFM. Therein, the chip can be extended to a micro-array chip immobilized with different kinds of receptors.
(b) Binding drug to receptor [12]: A drug is flowed through the chip to bind the drug to the receptor.
(c) Measuring binding force: The AFM is used to processing point-to-point detection for acquiring blocking effect by the drug according to the binding forces between the receptor and the ligand. If the binding force between the drug and the receptor is bigger than the binding force between the receptor and the ligand, the drug is identified as capable of breaking the bond between the receptor and the ligand, vice versa.
Take immuno-suppressive agent as an example. In FIG. 2, a receptor of T-cell membrane, CD28, is immobilized on chips, which is a protein labeled as imm-CD28 [21]. A ligand to CD28, ligand-CD80, is immobilized on a probe of an AFM, which is a receptor on immune B-cell membrane and is labeled as afm-CD80 [31]. Since the binding between CD80 and CD28 is related to human anaphylactic reaction, a small-molecule drug can be applied to block the binding between CD28 and CD80 for reducing immuno-reaction and anaphylactic reaction if the binding force between the drug and CD28 is bigger than that between CD80 and CD28.
Take an immuno-suppressive drug candidate, cynarin, as an example. The imm-CD28 [21] is immobilized on the chips and the afm-CD80 [31] is immobilized on the probe. Then the drug candidate, cynarin, is flowed through the chips to be bond with imm-CD28 [21] and separated from other components. In FIG. 3, a binding force (q1) between CD28 and CD80 on afm-CD80 [31] is great before adding cynarin. After adding the effective immuno-suppressive drug candidate 3, cynarin, the bond between CD28 and CD80 is blocked to form a very small binding force (q2). That is, q1>>q2. […]

Sequence of CD28/CD80 binding (P10747 19-152 limits assumed): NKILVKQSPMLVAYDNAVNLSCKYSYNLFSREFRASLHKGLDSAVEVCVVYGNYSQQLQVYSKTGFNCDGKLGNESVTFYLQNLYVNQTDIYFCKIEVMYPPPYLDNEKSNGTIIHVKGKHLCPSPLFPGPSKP

## O=C(/C=C/c1ccc(O)c(O)c1)O[C@@H]1C[C@@](OC(=O)/C=C/c2ccc(O)c(O)c2)(C(=O)O)C[C@@H](O)[C@@H]1O [cynarin]
167 pN−90 pN
  difference between the binding forces before and after adding cynarin (q1−q2): about 77 pN
After adding cynarin, average of 100 positions on chip, before adding about 167 pN±14 (q1), FIG. 4B
  average binding force between CD28 and CD80 after adding cynarin (q2): about 90 pN
Relative to q1 167 pN
  difference between the binding forces before and after adding cynarin, percent: ~46%
